Changes are numbered by the printed parent chain. Several values for one entry are separate records, joined by “and”; a condition that tells them apart may be missing. Identical values can stand only once. Like-named read-outs stand apart in the source and are kept apart here.
How the values were obtained:
Type in all cases: cell-based
hTA1 C178S = molecular target: T1, hTA1 C178S (Homo sapiens, UniProt Q96RJ0, C178S); assay: GloSensor cAMP accumulation assay, C178S mutant; settings: for C178S - Normalized Luminescence Counts (N=2): log[Compound], single replicates
T1 construct: expressed in transfected cells; host or cells: HEK293T
T1 sequence (Q96RJ0 1-339 C178S): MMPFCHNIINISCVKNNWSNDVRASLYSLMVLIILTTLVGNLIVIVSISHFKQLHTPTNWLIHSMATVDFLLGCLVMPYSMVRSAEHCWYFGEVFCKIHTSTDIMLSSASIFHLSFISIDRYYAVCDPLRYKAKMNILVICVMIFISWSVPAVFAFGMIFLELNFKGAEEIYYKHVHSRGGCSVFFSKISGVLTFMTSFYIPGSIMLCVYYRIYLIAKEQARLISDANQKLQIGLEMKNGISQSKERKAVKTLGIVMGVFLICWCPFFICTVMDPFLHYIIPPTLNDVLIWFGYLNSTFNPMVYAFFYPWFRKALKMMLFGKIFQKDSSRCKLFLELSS

hTA1 W264F = molecular target: T2, hTA1 W264F (Homo sapiens, UniProt Q96RJ0, W264F); assay: GloSensor cAMP accumulation assay, W264F mutant;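 also: cells transiently transfected with receptor plus GloSensor, luminescence read 30 min after agonist addition at room temperature, concentration-response curves fitted by log(agonist) vs response regression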
T2 construct: expressed in transfected cells; host or cells: HEK293T
T2 sequence (Q96RJ0 1-339 W264F): T1 sequence (Q96RJ0 1-339 C178S) with S178C, W264F

hTA1 V184P = molecular target: T3, hTA1 V184P (Homo sapiens, UniProt Q96RJ0, V184P); assay: GloSensor cAMP accumulation assay, V184P mutant; settings: for cAMP accumulation response, single replicate values (source data, Supplementary Figure 5): hTA1 V184P (N=2), log[Compound]
T3 construct: expressed in transfected cells; host or cells: HEK293T
T3 sequence (Q96RJ0 1-339 V184P): T1 sequence (Q96RJ0 1-339 C178S) with S178C, V184P

[1] = W246F mutant (so in the source) minus WT average

SMILES: CCC(CC1COC(N)=N1)c1ccccc1 (stereo not shown) [Ro5256390]
- C178S - Normalized Luminescence Counts (N=2) (hTA1 C178S; M = -9.522): 1.184 and 0.9499 and 2.959 and 8.825 and 6.193 and 11.0392
- C178S - Normalized Luminescence Counts (N=2) (hTA1 C178S; M = -10): 1.651 and 2.539 and 1.885 and 5.9234 and 4.278 and 6.671
- C178S - Normalized Luminescence Counts (N=2) (hTA1 C178S; M = -10.522): 0.4359 and -0.07812 and -0.265 and 1.256 and 0.02978 and 1.197
- C178S - Normalized Luminescence Counts (N=2) (hTA1 C178S; M = -11): 0.9499 and 0.763 and 0.2957 and 5.146 and 2.064 and 5.0259
- C178S - Normalized Luminescence Counts (N=2) (hTA1 C178S; M = -11.522): -0.4987 and 1.2303 and -0.03139 and 3.65 and 2.333 and 2.932
- C178S - Normalized Luminescence Counts (N=2) (hTA1 C178S; M = -12): 0.2023 and 1.184 and 0.4359 and 4.098 and 3.021 and 6.312
- C178S - Normalized Luminescence Counts (N=2) (hTA1 C178S; M = -12.522): 0.2023 and -0.1249 and -0.03139 and 3.321 and 2.124 and 7.958
- EC50 (hTA1 C178S; pEC50 values, Mean, C178S, each row one experiment (N=2), 3 replicates): 19.1 nM and 10.5 nM
- Emax (hTA1 C178S; read-out: Span ± SEM (Emax normalized to β-PEA), C178S, n=2): 120%
- Emax values, Mean (hTA1 W264F): 62.0152 and 91.1137
- EC50 (hTA1 W264F; EC50, W264F, n=2): 127 nM
- ΔEmax values (each mutant value - WT average) (hTA1 W264F; [1]): -41.2891
- ΔpEC50 values (each mutant value - WT average) (hTA1 W264F; [1]): -1.382 and -1.371
- EC50 (hTA1 W264F; W246F mutant (so in the source), each line an independent experiment, 3 replicates, read-out: pEC50 values (Mean) (converted)): 129 nM and 125 nM
- Emax (hTA1 W264F; read-out: Span ± SEM (Emax normalized to β-PEA), W264F, n=2): 76.6 ± 14.5%
- cAMP accumulation response, single replicate values (source data, Supplementary Figure 5) (hTA1 V184P; M = -5): 85.3904 and 101.684 and 66.3809 and 100.697 and 92.817 and 97.6917
- cAMP accumulation response, single replicate values (source data, Supplementary Figure 5) (hTA1 V184P; M = -5.522): 66.0899 and 55.7123 and 71.6182 and 88.7852 and 51.5463 and 90.3979
- cAMP accumulation response, single replicate values (source data, Supplementary Figure 5) (hTA1 V184P; M = -6): 83.0627 and 77.3404 and 73.6549 and 87.3191 and 55.1749 and 91.0943
- cAMP accumulation response, single replicate values (source data, Supplementary Figure 5) (hTA1 V184P; M = -6.522): 79.7651 and 75.3037 and 85.0024 and 81.1248 and 49.1639 and 85.8896
- cAMP accumulation response, single replicate values (source data, Supplementary Figure 5) (hTA1 V184P; M = -7): 89.6578 and 72.685 and 93.7313 and 87.2824 and 64.0448 and 74.7473
- cAMP accumulation response, single replicate values (source data, Supplementary Figure 5) (hTA1 V184P; M = -7.522): 94.3132 and 66.4779 and 74.3338 and 84.4969 and 64.0814 and 78.046
- cAMP accumulation response, single replicate values (source data, Supplementary Figure 5) (hTA1 V184P; M = -8): 62.0164 and 54.6454 and 40.6793 and 78.3026 and 66.3539 and 77.7161
- cAMP accumulation response, single replicate values (source data, Supplementary Figure 5) (hTA1 V184P; M = -8.522): 37.1877 and 24.6764 and 37.2847 and 29.115 and 34.8328 and 41.87
- cAMP accumulation response, single replicate values (source data, Supplementary Figure 5) (hTA1 V184P; M = -9): 15.9475 and 18.9541 and 11.3891 and 32.8169 and 25.9629 and 26.2194
- cAMP accumulation response, single replicate values (source data, Supplementary Figure 5) (hTA1 V184P; M = -9.522): 4.018 and 3.436 and 4.212 and 11.3752 and 7.6 and 9.799
- cAMP accumulation response, single replicate values (source data, Supplementary Figure 5) (hTA1 V184P; M = -10): 0.7205 and 0.9145 and 0.5265 and 3.678 and 2.945 and 4.778
- cAMP accumulation response, single replicate values (source data, Supplementary Figure 5) (hTA1 V184P; M = -10.522): -0.3463 and -0.9283 and 0.2356 and 0.1229 and 0.08625 and 0.5627
- cAMP accumulation response, single replicate values (source data, Supplementary Figure 5) (hTA1 V184P; M = -11): -1.316 (2×) and -1.4132 and 1.516 and -0.5368 and 1.039
- cAMP accumulation response, single replicate values (source data, Supplementary Figure 5) (hTA1 V184P; M = -11.522): -1.51 and -1.219 and -1.704 and 2.615 and 1.516 and 1.552
- cAMP accumulation response, single replicate values (source data, Supplementary Figure 5) (hTA1 V184P; M = -12): -1.316 and -1.51 and -1.801 and 15.6269 and 16.9097 and 12.5114
- cAMP accumulation response, single replicate values (source data, Supplementary Figure 5) (hTA1 V184P; M = -12.522): -1.4132 and -1.51 and -0.9283 and 2.505 and 1.149 and 1.736
- ΔpEC50 values (each mutant value - WT average), Mean (hTA1 V184P; hTA1 V184P mutant minus WT average): 0.1338 and 0.2823
- Emax values, Mean (hTA1 V184P; hTA1 V184P mutant, β-PEA set to 100, each grid row a separate experiment, 3 replicates): 78.2024
- EC50 (hTA1 V184P; pEC50 values (Mean), hTA1 V184P mutant, Figure 3B source data, each grid row a separate experiment, 3 replicates): 3.92 nM and 2.79 nM
- EC50 (hTA1 V184P; pEC50 ± SEM, V184P, n=2): 3.31 nM
- Emax (hTA1 V184P; read-out: Emax values (Mean), hTA1 V184P mutant, β-PEA set to 100, each grid row a separate experiment, 3 replicates): 81.5%
- Emax (hTA1 V184P; read-out: Span ± SEM (Emax normalized to β-PEA), V184P, n=2): 79.8 ± 1.63%

Reference: PMC10762035, “Molecular basis of human trace amine-associated receptor 1 activation” (Nature Communications, 2024)
